Measured values: US12102089B2, “Method for inactivating mold spores” (DSM IP ASSETS B.V., priority 2017, dated 2024)

Test system: Talaromyces emersonii (CBS 236.58)
Experiment: Heat treatment of Talaromyces emersonii spores in ice tea with natamycin, visual growth
Type: cell-based
Set-up: key to growth or no growth: growth (+); no growth (−)
Method: Commercially available ice tea (Lipton, peach flavor, non-carbonated, 1.5 L) was adjusted to high water hardness by adding 1 ml of a solution of 39 g CaCl2 and 27 g MgCl2 added to 934 g water. ⅓ of this ice tea preparation (the pH of which was 3.15) was left as-such, ⅓ of the preparation was enriched with 5 ppm natamycin and ⅓ of the preparation was enriched with 10 ppm natamycin. Samples of 5 ml were made from each preparation in 15 ml sterile plastic tubes. Of each preparation 8 samples were pre-heated to the desired pasteurization temperature using a water bath. Temperatures used were RT, 60, 65, 70, 75, 80, 85 and 90° C. When the desired temperature was reached, 100 μl of a 2500 spores/ml spore suspension of Aspergillus niger ATCC 9029AA was added to each tube. Subsequently, the samples were kept for 30 seconds at the temperature in question in the water bath. Next, the samples were cooled on ice to a temperature of 25° C. Samples were incubated at 25° C. and visually examined for growth (formation of mold flakes or turbidity) for two months. Additionally, samples were enumerated according to ISO protocol 21527-1.2008 on day 0 (before heat treatment) and day 1 (after heat treatment) to count immediate loss of viability. […] For the results, see Table 1. […] Example 1 was repeated however with Talaromyces emersonii (CBS 236.58, 1000 spores/ml) instead of Aspergillus niger.

## C[C@@H]1C/C=C/C=C/C=C/C=C/[C@H](O[C@@H]2O[C@H](C)[C@@H](O)[C@H](N)[C@@H]2O)C[C@@H]2O[C@](O)(C[C@@H](O)C[C@H]3O[C@@H]3/C=C/C(=O)O1)C[C@H](O)[C@H]2C(=O)O [natamycin]
60°C, 5 ppm, day 1
  growth or no growth: −
60°C, 5 ppm, day 2
  growth or no growth: −
60°C, 5 ppm, day 3
  growth or no growth: −
60°C, 5 ppm, day 4
  growth or no growth: −
60°C, 5 ppm, day 5
  growth or no growth: −
60°C, 5 ppm, day 6
  growth or no growth: −
60°C, 5 ppm, day 7
  growth or no growth: −
60°C, 5 ppm, day 8
  growth or no growth: −
60°C, 5 ppm, day 9
  growth or no growth: −
60°C, 5 ppm, day 10
  growth or no growth: −
60°C, 5 ppm, day 11
  growth or no growth: −
60°C, 5 ppm, day 12
  growth or no growth: −
60°C, 5 ppm, day 13
  growth or no growth: −
60°C, 5 ppm, day 14
  growth or no growth: −
60°C, 10 ppm, day 1
  growth or no growth: −
60°C, 10 ppm, day 2
  growth or no growth: −
60°C, 10 ppm, day 3
  growth or no growth: −
60°C, 10 ppm, day 4
  growth or no growth: −
60°C, 10 ppm, day 5
  growth or no growth: −
60°C, 10 ppm, day 6
  growth or no growth: −
60°C, 10 ppm, day 7
  growth or no growth: −
60°C, 10 ppm, day 8
  growth or no growth: −
60°C, 10 ppm, day 9
  growth or no growth: −
60°C, 10 ppm, day 10
  growth or no growth: −
60°C, 10 ppm, day 11
  growth or no growth: −
60°C, 10 ppm, day 12
  growth or no growth: −
60°C, 10 ppm, day 13
  growth or no growth: −
60°C, 10 ppm, day 14
  growth or no growth: −
65°C, 5 ppm, day 1
  growth or no growth: −
65°C, 5 ppm, day 2
  growth or no growth: −
65°C, 5 ppm, day 3
  growth or no growth: −
65°C, 5 ppm, day 4
  growth or no growth: +
65°C, 5 ppm, day 5
  growth or no growth: +
65°C, 5 ppm, day 6
  growth or no growth: +
65°C, 5 ppm, day 7
  growth or no growth: +
65°C, 5 ppm, day 8
  growth or no growth: +
65°C, 5 ppm, day 9
  growth or no growth: +
65°C, 5 ppm, day 10
  growth or no growth: +
65°C, 5 ppm, day 11
  growth or no growth: +
65°C, 5 ppm, day 12
  growth or no growth: +
65°C, 5 ppm, day 13
  growth or no growth: +
65°C, 5 ppm, day 14
  growth or no growth: +
65°C, 10 ppm, day 1
  growth or no growth: −
65°C, 10 ppm, day 2
  growth or no growth: −
65°C, 10 ppm, day 3
  growth or no growth: −
65°C, 10 ppm, day 4
  growth or no growth: −
65°C, 10 ppm, day 5
  growth or no growth: −
65°C, 10 ppm, day 6
  growth or no growth: −
65°C, 10 ppm, day 7
  growth or no growth: −
65°C, 10 ppm, day 8
  growth or no growth: −
65°C, 10 ppm, day 9
  growth or no growth: −
65°C, 10 ppm, day 10
  growth or no growth: −
65°C, 10 ppm, day 11
  growth or no growth: −
65°C, 10 ppm, day 12
  growth or no growth: −
65°C, 10 ppm, day 13
  growth or no growth: −
65°C, 10 ppm, day 14
  growth or no growth: −
70°C, 5 ppm, day 1
  growth or no growth: −
70°C, 5 ppm, day 2
  growth or no growth: −
70°C, 5 ppm, day 3
  growth or no growth: −
70°C, 5 ppm, day 4
  growth or no growth: −
70°C, 5 ppm, day 5
  growth or no growth: −
70°C, 5 ppm, day 6
  growth or no growth: −
70°C, 5 ppm, day 7
  growth or no growth: −
70°C, 5 ppm, day 8
  growth or no growth: −
70°C, 5 ppm, day 9
  growth or no growth: −
70°C, 5 ppm, day 10
  growth or no growth: −
70°C, 5 ppm, day 11
  growth or no growth: −
70°C, 5 ppm, day 12
  growth or no growth: −
70°C, 5 ppm, day 13
  growth or no growth: −
70°C, 5 ppm, day 14
  growth or no growth: −
70°C, 10 ppm, day 1
  growth or no growth: −
70°C, 10 ppm, day 2
  growth or no growth: −
70°C, 10 ppm, day 3
  growth or no growth: −
70°C, 10 ppm, day 4
  growth or no growth: −
70°C, 10 ppm, day 5
  growth or no growth: −
70°C, 10 ppm, day 6
  growth or no growth: −
70°C, 10 ppm, day 7
  growth or no growth: −
70°C, 10 ppm, day 8
  growth or no growth: −
70°C, 10 ppm, day 9
  growth or no growth: −
70°C, 10 ppm, day 10
  growth or no growth: −
70°C, 10 ppm, day 11
  growth or no growth: −
70°C, 10 ppm, day 12
  growth or no growth: −
70°C, 10 ppm, day 13
  growth or no growth: −
70°C, 10 ppm, day 14
  growth or no growth: −
75° C., 10 ppm natamycin
  germination: no germination occurred
75°C, 5 ppm, day 9
  growth or no growth: +
75°C, 5 ppm, day 10
  growth or no growth: +
85° C., both concentrations (5 and 10 ppm)
  germination: no germination occurred
RT, 5 or 10 ppm natamycin
  germination: delayed germination
RT, 10 ppm, day 1
  growth or no growth: −
RT, 10 ppm, day 2
  growth or no growth: −
RT, 10 ppm, day 3
  growth or no growth: −
RT, 10 ppm, day 4
  growth or no growth: −
RT, 10 ppm, day 5
  growth or no growth: −
RT, 10 ppm, day 6
  growth or no growth: −
RT, 10 ppm, day 7
  growth or no growth: +
RT, 10 ppm, day 8
  growth or no growth: +
RT, 10 ppm, day 9
  growth or no growth: +
RT, 10 ppm, day 10
  growth or no growth: +
RT, 10 ppm, day 11
  growth or no growth: +
RT, 10 ppm, day 12
  growth or no growth: +
RT, 10 ppm, day 13
  growth or no growth: +
RT, 10 ppm, day 14
  growth or no growth: +
